Assays:
[1] = system: MCF‐10A human breast epithelial cells; assay: MTT cell viability assay, MCF-10A; format: cell-based; conditions: 72 h, non-tumorigenic cells
Method: (§1) Human cell lines, breast cancer MCF‐7 and MDA‐MB‐231, along with the human breast epithelial cell line (MCF‐10A), were purchased from ATCC (Rockville, USA). The necessary supplies, including fetal bovine serum (FBS), RPMI 1640 medium, 3‐(4,5‐dimethylthiazol‐2‐yl)‐2,5‐diphenyltetrazolium bromide (MTT), and DMSO, were provided by Merck (Darmstadt, Germany). The cells were maintained at 37°C in a CO2─enriched chamber, utilizing RPMI 1640 medium fortified with 10% FBS and 100 U/mL of penicillin/streptomycin [30].
(§2) Cell survival was evaluated using the MTT technique, which measures cellular redox activity. In metabolically active cells, MTT (3‐(4,5‐dimethylthiazol‐2‐yl)) is reduced to form an insoluble purple formazan. This formazan was solubilized, and its concentration was quantified by measuring optical density. MTT, sourced as a powder from Sigma, was made with phosphate‐buffered saline (PBS) in a 5 mM standard solution. The density at which cells were propagated was 10⁴ cells per well in 96‐well plates. Triazole‐coumarin hybrids were dissolved in DMSO, and varying concentrations (0.1–200 µM) of these derivatives were applied to the cells. Following treatment for 24, 48, and 72 h, 20 µL of the MTT mix was applied to each well, and the wells were then incubated for 4 h at thirty‐seven degrees in a CO2 incubator. After incubating, the formazan crystals were dissolved by adding 200 µL of DMSO after the MTT mixture was withdrawn. The absorption rate was recorded at 590 nm utilizing a Tecan spectrophotometer. Cisplatin served as the reference drug. […] To determine the selective toxicity of the triazole‐coumarin hybrids against breast cancer cells, the formula was used to compute the SI = IC50 for normal cells/IC50 for cancer cells.

[2] = system: MDA‐MB‐231 breast cancer cells; assay: MTT cell viability assay, MDA-MB-231; format: cell-based, human; conditions: for IC50: MTT, 72 h
Method: as §1, §2

[3] = system: MCF‐7 breast cancer cells; assay: MTT cell viability assay, MCF-7; format: cell-based, human; conditions: for IC50: MTT, 72 h
Method: as §1, §2

MCF‐7 = system: MCF‐7; set-up: method as in PMID 30556027; conditions: literature ref 28; cited from earlier work
[4] = system: MCF‐7 breast cancer cells; assay: Cell cycle analysis by flow cytometry (PI), MCF-7; format: cell-based, human; conditions: 72 h
Method: (§3) In 24‐well plates, cells were introduced at a concentration of 5×10⁵ colonies per plate, and compound 5f was administered at its IC50 concentration for 72 h. The cell cycle phases were evaluated using the Cayman Cell Cycle Phase Determination Kit. Following treatment, applying cold PBS, cells were rinsed, trypsinized, and 5 min of centrifugation at 500 × g. The resulting pellets were resuspended in 250 µL of fixative and held at −20°C for 2 h. After a second centrifugation at 500 × g for 5 min, washing was carried out with PBS and stained with propidium iodide (PI) for 30 min at room temperature. Flow cytometric analysis of the cell cycle was implemented using a BD Accuri C6 flow cytometer, with detection wavelengths ranging from 488 to 650 nm.

[5] = system: MDA‐MB‐231 breast cancer cells; assay: Cell cycle analysis by flow cytometry (PI), MDA-MB-231; format: cell-based, human; conditions: 72 h
Method: as §3

Bcl─2 mRNA [6] = assay: qRT-PCR Bcl-2 mRNA in MCF-7; format: cell-based, human; conditions: MCF-7, IC50 value of 5f, 72 h
Method: (§4) To figure out the mRNA levels of apoptosis‐related proteins B‐cell lymphoma 2 (Bcl─2), Bcl─2‐associated X protein (Bax), cyclin‐dependent kinase 2 (CDK2), and Cyclin E, total mRNA was extracted from cells treated with compound 5f using Trizol reagent (Sigma). Complementary DNA (cDNA) synthesis was conducted from total mRNA using a Qiagen cDNA synthesis kit as described by the manufacturer. The primers listed below (350 nM concentration) were utilized: Bcl─2; forward ([…]); reverse ([…]), Bax; forward ([…]); reverse ([…]), CDK2; forward ([…]); reverse (TGGCTGAAATCCGCTTGTT), Cyclin E; forward ([…]); reverse ([…]), human GAPDH; forward ([…]); reverse (AGATGGTGATGGGCTTCCC). The PCR reaction mixture consisted of 1X buffer, 0.2 mM dNTPs, 1.6 mM MgCl2, 50 pmol of primer sets, cDNA, and 0.25 U of Taq polymerase. The thermal cycling conditions included an initial denaturation at 95°C for 60 s, followed by 50 cycles comprising 15 s of denaturation at 95°C, 15 s of annealing at 60°C, and 60 s of extension at 72°C. The median CT value of GAPDH, the naturally present housekeeping gene, was utilized to normalize the cycle threshold (CT) values. Levels of compared transcription were established using the comparative ^ΔΔCT method.

Bax mRNA [7] = assay: qRT-PCR Bax mRNA in MCF-7; format: cell-based, human; conditions: MCF-7, IC50 value of 5f, 72 h
Method: as §4

Bcl─2 mRNA [8] = assay: qRT-PCR Bcl-2 mRNA in MDA-MB-231; format: cell-based, human; conditions: MDA-MB-231, IC50 value of 5f, 72 h
Method: as §4

Bax mRNA [9] = assay: qRT-PCR Bax mRNA in MDA-MB-231; format: cell-based, human; conditions: MDA-MB-231, IC50 value of 5f, 72 h
Method: as §4

[10] = system: MCF‐7 breast cancer cells; assay: DNA fragmentation (Cell Death Detection kit), MCF-7; format: cell-based, human; conditions: 72 h, p < 0.05
Method: (§5) As an apoptotic signature, DNA fragmentation was evaluated using the Cell Death Detection kit (Sigma). In 96‐well plates, cancerous cells were cultivated at a density of 1×10⁵ cells per well, and compound 5f was applied at its IC50 concentration for 72 h. In brief, 20 µL of cell lysates were transferred to streptavidin‐coated wells preloaded with anti‐DNA antibodies and held at RT for 2 h. Three washes afterward with the provided washing buffer, 2,2‐azino‐di‐(3‐ethylbenzthiazoline sulfonate) diammonium salt was put into every well. Absorbance was determined at 405 nm employing a spectrophotometer.

[11] = system: MDA‐MB‐231 breast cancer cells; assay: DNA fragmentation (Cell Death Detection kit), MDA-MB-231; format: cell-based, human; conditions: 72 h, p < 0.05
Method: as §5

[12] = SI = IC50 for normal cells (MCF-10A)/IC50 for cancer cells

With N.N.[Cl][Pt][Cl] [Cisplatin, cisplatin, reference compound] the IC50 [1] was 12.2 ± 0.8 µM, the IC50 [2] was 8.7 ± 0.6 µM and the IC50 [3] was 9.3 ± 1.2 µM.
In the case of Cc1n[nH]c(=O)n1NC(=O)c1cc2c(ccc3ccccc32)oc1=O [Derivative 5a, N‐(3‐Methyl‐5‐oxo‐1,5‐dihydro‐4H‐1,2,4‐triazol‐4‐yl)‐3‐oxo‐3H‐benzo[f]chromene‐2‐carboxamide], the IC50 ([1]; Homo sapiens, MCF-10A) is reported as 12.5 ± 1 µM, the IC50 ([2]; Homo sapiens, MDA-MB-231, 72 h) is reported as 18.4 ± 1.16 µM and the IC50 ([3]; Homo sapiens, MCF7, 72 h) is reported as 22.5 ± 1.8 µM.
In the case of CCc1n[nH]c(=O)n1NC(=O)c1cc2c(ccc3ccccc32)oc1=O [Derivative 5b, N‐(3‐Ethyl‐5‐oxo‐1,5‐dihydro‐4H‐1,2,4‐triazol‐4‐yl)‐3‐oxo‐3H‐benzo[f]chromene‐2‐carboxamide], the IC50 ([1]; Homo sapiens, MCF-10A) is reported as 25.2 ± 1.5 µM, the IC50 ([2]; Homo sapiens, MDA-MB-231, 72 h) is reported as 95.8 ± 2.4 µM and the IC50 ([3]; Homo sapiens, MCF7, 72 h) is reported as 76.6 ± 2.1 µM. For the same compound, the “apoptotic effect in MCF‐7” value (MCF‐7) was “altered the mitochondrial membrane potential in MCF‐7, causing apoptotic cell death”.
For O=C(Nn1c(-c2ccccc2)n[nH]c1=O)c1cc2c(ccc3ccccc32)oc1=O [Derivative 5c, 3‐Oxo‐N‐(5‐oxo‐3‐phenyl‐1,5‐dihydro‐4H‐1,2,4‐triazol‐4‐yl)‐3H‐benzo[f]chromene‐2‐carboxamide], the IC50 ([1]; Homo sapiens, MCF-10A) was 62.8 ± 0.4 µM, the IC50 ([2]; Homo sapiens, MDA-MB-231, 72 h) was 64 ± 1.4 µM and the IC50 ([3]; Homo sapiens, MCF7, 72 h) was 25.9 ± 0.8 µM.
In the case of O=C(Nn1c(Cc2ccccc2)n[nH]c1=O)c1cc2c(ccc3ccccc32)oc1=O [Derivative 5d, N‐(3‐Benzyl‐5‐oxo‐1,5‐dihydro‐4H‐1,2,4‐triazol‐4‐yl)‐3‐oxo‐3H‐benzo[f]chromene‐2‐carboxamide], the IC50 ([1]; Homo sapiens, MCF-10A) is reported as 38.2 ± 0.7 µM, the IC50 ([2]; Homo sapiens, MDA-MB-231, 72 h) is reported as 87 ± 2 µM and the IC50 ([3]; Homo sapiens, MCF7, 72 h) is reported as 49.8 ± 2.2 µM.
Cc1ccc(Cc2n[nH]c(=O)n2NC(=O)c2cc3c(ccc4ccccc43)oc2=O)cc1 [Derivative 5e, N‐(3‐(4‐Methylbenzyl)‐5‐oxo‐1,5‐dihydro‐4H‐1,2,4‐triazol‐4‐yl)‐3‐oxo‐3H‐benzo[f]chromene‐2‐carboxamide] showed an IC50 ([1]; Homo sapiens, MCF-10A) of 40.6 ± 2.1 µM, an IC50 ([2]; Homo sapiens, MDA-MB-231, 72 h) of 61.7 ± 0.4 µM and an IC50 ([3]; Homo sapiens, MCF7, 72 h) of 68.9 ± 3.1 µM.
For O=C(Nn1c(Cc2ccc(Cl)cc2)n[nH]c1=O)c1cc2c(ccc3ccccc32)oc1=O [Derivative 5f, N‐(3‐(4‐Chlorobenzyl)‐5‐oxo‐1,5‐dihydro‐4H‐1,2,4‐triazol‐4‐yl)‐3‐oxo‐3H‐benzo[f]chromene‐2‐carboxamide], the IC50 ([1]; Homo sapiens, MCF-10A) was 61.9 ± 0.6 µM, the IC50 ([2]; Homo sapiens, MDA-MB-231, 72 h) was under 25 µM and the IC50 [2] was 15.7 ± 0.2 µM. For the same compound, the “selectivity index (SI) MDA‐MB‐231” value [2, 12] was 3.9, the IC50 ([3]; Homo sapiens, MCF7, 72 h) was under 25 µM and the IC50 [3] was 22.1 ± 0.42 µM. The “selectivity index (SI) MCF‐7” value [3, 12] was 2.8, the “Cell cycle kinetics, M” value ([4]; MCF-7, IC50 value of 5f) was 22.9 and the “Cell cycle kinetics, S” value ([4]; MCF-7, IC50 value of 5f) was 36.1. For the same compound, the “phase of cell cycle block” value ([4]; MCF-7, IC50 value) was “S phase”, the “Cell cycle kinetics, G0/G1” value ([5]; MDA-MB-231, IC50 value of 5f) was 0.8 and the “Cell cycle kinetics, M” value ([5]; MDA-MB-231, IC50 value of 5f) was 20.0. The “Cell cycle kinetics, S” value ([5]; MDA-MB-231, IC50 value of 5f) was 36.6, the “phase of cell cycle block” value ([5]; MDA-MB-231, IC50 value) was “S phase” and the “Bcl─2 mRNA level, downregulated” value (Bcl─2 mRNA [6]) was 2.1 fold. The “Bax mRNA level, upregulated” value (Bax mRNA [7]) was 2.35 fold, the “Bcl─2 mRNA level, downregulated” value (Bcl─2 mRNA [8]) was 3.1 fold and the “Bax mRNA level, upregulated” value (Bax mRNA [9]) was 2.35 fold. It also gave a DNA fragmentation induction ([10]; MCF-7, 1 µM) of 1.65 fold, a DNA fragmentation induction ([10]; MCF-7, 10 µM) of 3 fold and a DNA fragmentation induction ([10]; MCF-7, 50 µM) of 4.1 fold. The DNA fragmentation induction ([11]; MDA-MB-231, 1 µM) was 1.7 fold, the DNA fragmentation induction ([11]; MDA-MB-231, 10 µM) was 2.15 fold and the DNA fragmentation induction ([11]; MDA-MB-231, 50 µM) was 4.15 fold.
